Source: patent US9233099B2, “Methods of treating cognitive dysfunction by modulating brain energy metabolism” (University of Cincinnati, priority 2012, dated 2016)

Legend:
[1] = test system: person with X-linked creatine transporter deficiency (CTD); test: Creatine treatment of a child with X-linked creatine transporter deficiency; format: in vivo, human; details: increasing doses to 750 mg/kg/day, discontinued after 6 months
Excerpt: This example illustrates that administration of creatine to a person with X-linked creatine transporter deficiency (CTD) fails to increase brain creatine or to ameliorate clinical symptoms associated with decreased brain levels of creatine. […] Several female family members were identified as heterozygote carriers of this disorder, and appear to have decreased Cr. The child had severe expressive dysphasia with other cognitive functions less affected. […] In the absence of demonstrable benefit, the creatine treatment was discontinued after 6 months.

CRT KO mice [2] = test: Novel Object Recognition test; format: in vivo; details: before and after 9-week supplementation, 0.286 mg/g body weight/day
Excerpt: Regarding FIG. 3, CRT brain-specific knockout male mice (CRT′ or CRT KO mice) and their control littermates (CrTf1″5″) were generated by the methods known in the art (e.g., by using the Cre-lox system and homologous recombination as described in Sauer B., Methods, 1998, 14, 381-392; the strategy for targeting the gene deletion to the brain region was based on the data described in Casanova E. et al., Genesis 2001, 31, 37-42). […] A total 29 CRT KO male mice (CRT^/y) and 28 control male mice (CRT^flox/y) at 12 months of age were used in the cyclocreatine supplementation study. The mice were randomly assigned to one of three groups that were started on one of three treatments for 9 weeks: 1) cyclocreatine (C-Cr, CRT KO=7, control=5), 2) creatine (Cr, CRT KO=5, control=5), and 3) maltodextrine as placebo (P, CRT KO=5, control=5). Each treatment drug was supplied in the drinking water and the concentration was adjusted to 0.286 mg/g body weight/day, corresponding to the standard dose of creatine for human subjects (20 g/70 kg body weight/day). Short-term memory of CRT KO mice and their control littermates before and after 9-week cyclocreatine supplementation was measured using the Novel Object Recognition test that is routinely used in the art for evaluation of cognition in rodent models of the disorders of the central nervous system. […]

creatine transporter = target: T1, creatine transporter (Homo sapiens, UniProt P48029); details: normal human monocytes and macrophages; read-out: Km of creatine transport; cited from earlier work
T1 construct: endogenous in cells; host or cells: normal human monocytes and macrophages
T1 sequence (P48029 1-635): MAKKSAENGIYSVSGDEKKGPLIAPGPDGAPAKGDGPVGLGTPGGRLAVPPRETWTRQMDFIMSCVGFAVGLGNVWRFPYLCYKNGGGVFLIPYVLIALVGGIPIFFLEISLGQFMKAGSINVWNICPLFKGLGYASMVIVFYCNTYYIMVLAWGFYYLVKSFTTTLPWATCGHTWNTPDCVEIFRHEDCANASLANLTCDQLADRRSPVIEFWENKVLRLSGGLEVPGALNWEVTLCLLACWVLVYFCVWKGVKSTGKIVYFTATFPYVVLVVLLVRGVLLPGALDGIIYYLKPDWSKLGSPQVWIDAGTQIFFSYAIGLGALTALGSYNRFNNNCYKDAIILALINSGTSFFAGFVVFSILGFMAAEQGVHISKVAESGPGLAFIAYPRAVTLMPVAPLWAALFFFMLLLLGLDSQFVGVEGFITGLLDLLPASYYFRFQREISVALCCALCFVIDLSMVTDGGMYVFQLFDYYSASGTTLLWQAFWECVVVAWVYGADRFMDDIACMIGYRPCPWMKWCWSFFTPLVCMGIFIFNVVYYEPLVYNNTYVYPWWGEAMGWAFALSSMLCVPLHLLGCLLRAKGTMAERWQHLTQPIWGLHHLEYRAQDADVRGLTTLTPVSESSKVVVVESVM

CRT KO mice [3] = test: Levels of cyclocreatine in the brain after supplementation; format: in vivo; details: 9 weeks supplementation in drinking water, 0.286 mg/g body weight/day
Excerpt: Regarding FIG. 3, CRT brain-specific knockout male mice (CRT′ or CRT KO mice) and their control littermates (CrTf1″5″) were generated by the methods known in the art (e.g., by using the Cre-lox system and homologous recombination as described in Sauer B., Methods, 1998, 14, 381-392; the strategy for targeting the gene deletion to the brain region was based on the data described in Casanova E. et al., Genesis 2001, 31, 37-42). […] A total 29 CRT KO male mice (CRT^/y) and 28 control male mice (CRT^flox/y) at 12 months of age were used in the cyclocreatine supplementation study. The mice were randomly assigned to one of three groups that were started on one of three treatments for 9 weeks: 1) cyclocreatine (C-Cr, CRT KO=7, control=5), 2) creatine (Cr, CRT KO=5, control=5), and 3) maltodextrine as placebo (P, CRT KO=5, control=5). […] Levels of cyclocreatine and creatine in the organs of CRT KO mice and their control littermates before cyclocreatine supplementation were measured by the methods known in the art (e.g., creatine content was measured as described in Conn R., Clin. Chem., 1960, 6, 537-548; and cyclocreatine content was measured as described in Griffith G. R., J Biol. Chem. 1976, 251(7), 2049-2054). […] Data is expressed as mean±SE. §P≦0.0001, §§P<0.00001.

CRT KO mice [4] = test: Phosphorylated metabolites in the brain by in vivo magnetic resonance spectroscopy; details: after 9 weeks supplementation, in vivo MRS
Excerpt: Regarding FIG. 3, CRT brain-specific knockout male mice (CRT′ or CRT KO mice) and their control littermates (CrTf1″5″) were generated by the methods known in the art (e.g., by using the Cre-lox system and homologous recombination as described in Sauer B., Methods, 1998, 14, 381-392; the strategy for targeting the gene deletion to the brain region was based on the data described in Casanova E. et al., Genesis 2001, 31, 37-42). […] A total 29 CRT KO male mice (CRT^/y) and 28 control male mice (CRT^flox/y) at 12 months of age were used in the cyclocreatine supplementation study. The mice were randomly assigned to one of three groups that were started on one of three treatments for 9 weeks: 1) cyclocreatine (C-Cr, CRT KO=7, control=5), 2) creatine (Cr, CRT KO=5, control=5), and 3) maltodextrine as placebo (P, CRT KO=5, control=5). Each treatment drug was supplied in the drinking water and the concentration was adjusted to 0.286 mg/g body weight/day, corresponding to the standard dose of creatine for human subjects (20 g/70 kg body weight/day). The levels of phosphorylated metabolites in the brains of the CRT KO and their control littermates were measured by in vivo magnetic resonance spectroscopy using the procedures well known in the art. […] Data is expressed as mean±SE,*P≦0.05, **P≦0.01.

CRT KO mice [5] = test: Morris Water Maze test; format: in vivo
Excerpt: Regarding FIG. 3, CRT brain-specific knockout male mice (CRT′ or CRT KO mice) and their control littermates (CrTf1″5″) were generated by the methods known in the art (e.g., by using the Cre-lox system and homologous recombination as described in Sauer B., Methods, 1998, 14, 381-392; the strategy for targeting the gene deletion to the brain region was based on the data described in Casanova E. et al., Genesis 2001, 31, 37-42). […] A total 29 CRT KO male mice (CRT^/y) and 28 control male mice (CRT^flox/y) at 12 months of age were used in the cyclocreatine supplementation study. The mice were randomly assigned to one of three groups that were started on one of three treatments for 9 weeks: 1) cyclocreatine (C-Cr, CRT KO=7, control=5), 2) creatine (Cr, CRT KO=5, control=5), and 3) maltodextrine as placebo (P, CRT KO=5, control=5). […] Spatial learning and memory in the CRT KO mice and their control littermates before and after 9-week cyclocreatine supplementation was measured by the Morris Water Maze test, a procedure routinely used in behavioral neuroscience to study spatial learning and memory. […] The mouse swims around the pool in search of an exit while various parameters are recorded, e.g., the time spent in each quadrant of the pool and the time taken to reach the platform (latency). […] Data is expressed as mean±SE, *P≦0.05.

levels of cyclocreatine in the brains (CRT KO mice [3]) | Compound | clinical or spectroscopic (1H MRS) improvement [1] | short-term memory (discrimination index) (CRT KO mice [2]) | Km (creatine transporter) [µM] | levels of cyclocreatine and/or creatine phosphate in the brain (peak height ratio) (CRT KO mice [4]) | spatial learning and memory (CRT KO mice [5]; before and after 9-week supplementation) | latency in finding hidden platforms (CRT KO mice [5]; versus placebo treated CRT KO mice)
– | CN(CC(=O)O)C(=N)N [creatine] | without clinical or spectroscopic (^1H MRS) improvement | no significant changes | ~30 | – | – | –
increased | NC1=NCCN1CC(=O)O [cyclocreatine] | – | normalizes the short-term memory | – | increases the levels of cyclocreatine and/or creatine phosphate | improves spatial learning and memory | shorter latency
